The series can be described thus: Henry solubility constant Hcp at 293 K (mol/(m3 Pa)). The following applies: reference: Hovorka and Dohnal (1997).

The results in this text go back to Sander's compilation of Henry's law constants (doi:10.1021/je970046g).

As for `ClCCl` [dichloromethane], the “Henry solubility constant Hcp at 293 K” value came out at 0.0051.
To `Clc1cccc(Cl)c1` [1,3-dichlorobenzene] belongs 0.0047.
With `Clc1ccc(Cl)cc1` [1,4-dichlorobenzene], the “Henry solubility constant Hcp at 293 K” value was 0.0054.
On to `ClCC(Cl)Cl` [1,1,2-trichloroethane], for which the “Henry solubility constant Hcp at 293 K” value turned out to be 0.015.
To `Brc1ccccc1` [bromobenzene] belongs 0.0061; to `Clc1ccccc1` [chlorobenzene], 0.0035.
As to `ClC=C(Cl)Cl` [trichloroethene], the “Henry solubility constant Hcp at 293 K” value is 0.0013.
Turning to `CC(Cl)CCl` (centres undefined) [1,2-dichloropropane], the “Henry solubility constant Hcp at 293 K” value came out at 0.0046.
Regarding `BrC(Br)Br` [tribromomethane], the “Henry solubility constant Hcp at 293 K” value was 0.023.
To `BrCBr` [dibromomethane] belongs 0.015; to `ClCc1ccccc1` [(chloromethyl)-benzene], 0.028.
To `CC(Cl)(Cl)Cl` [1,1,1-trichloroethane] belongs 0.00079.
To `ClC(Cl)=C(Cl)Cl` [tetrachloroethene] belongs 0.00084; to `ClC(Cl)C(Cl)Cl` [1,1,2,2-tetrachloroethane], 0.03.
